The values that follow come from patent US7183385B2, “Phospho-specific antibodies to Flt3 and uses thereof” (Cell Signaling Technology, Inc., priority 2002, dated 2007).

In this test the target is T1, constitutively active Flt3 in EOL-1 cells (Homo sapiens, UniProt P36888).
T1 construct: expresses an endogenous, constitutively active Flt3; endogenous in cells; host or cells: EOL-1 hematopoietic cell line
T1 sequence (P36888 27-993): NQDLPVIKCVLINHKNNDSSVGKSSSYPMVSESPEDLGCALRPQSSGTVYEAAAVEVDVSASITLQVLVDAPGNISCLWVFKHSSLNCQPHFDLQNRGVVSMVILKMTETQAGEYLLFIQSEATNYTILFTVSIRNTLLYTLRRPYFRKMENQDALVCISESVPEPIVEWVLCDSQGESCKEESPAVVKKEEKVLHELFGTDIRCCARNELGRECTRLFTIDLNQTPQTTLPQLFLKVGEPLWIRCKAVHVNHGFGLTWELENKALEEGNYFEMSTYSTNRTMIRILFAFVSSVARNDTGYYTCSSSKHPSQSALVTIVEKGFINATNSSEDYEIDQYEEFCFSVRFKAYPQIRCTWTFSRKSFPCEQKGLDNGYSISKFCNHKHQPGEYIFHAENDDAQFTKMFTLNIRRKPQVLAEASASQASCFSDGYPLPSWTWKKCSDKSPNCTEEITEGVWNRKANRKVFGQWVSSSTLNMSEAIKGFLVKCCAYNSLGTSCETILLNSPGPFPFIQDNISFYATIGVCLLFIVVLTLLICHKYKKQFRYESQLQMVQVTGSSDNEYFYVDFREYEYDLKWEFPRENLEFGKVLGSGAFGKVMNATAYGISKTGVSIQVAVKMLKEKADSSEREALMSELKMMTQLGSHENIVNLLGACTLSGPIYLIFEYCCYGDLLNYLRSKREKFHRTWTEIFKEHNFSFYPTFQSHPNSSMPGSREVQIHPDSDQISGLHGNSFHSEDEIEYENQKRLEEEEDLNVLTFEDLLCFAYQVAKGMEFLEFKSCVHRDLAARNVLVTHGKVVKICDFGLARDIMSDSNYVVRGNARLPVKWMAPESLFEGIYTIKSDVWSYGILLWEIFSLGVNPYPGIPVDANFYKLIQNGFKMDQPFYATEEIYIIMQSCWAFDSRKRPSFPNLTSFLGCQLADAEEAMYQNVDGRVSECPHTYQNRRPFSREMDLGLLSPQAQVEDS
The test is described as follows: Flt3 inhibitor effect on phospho-Flt3(Tyr591) staining in EOL-1 cells by flow cytometry. The note with it: serum-starved EOL-1 cells, inhibitor 4 hours at 37° C.; FIG. 6. The format is cell-based. The method, then: Flt3(Tyr591) phosphospecific monoclonal antibody CST #25-54 was used in flow cytometry to detect phospho-Flt3(Tyr591) in the EOL-1 hematopoietic cell line that expresses an endogenous, constitutively active Flt3. Serum-starved cells were incubated with or without the small molecule Flt3 inhibitor AG1296 for 4 hours at 37° C. The cells then were fixed with 2% paraformaldehyde for 10 minutes at 37° C. followed by cell permeabilization 90% with methanol for 30 minutes on ice. The fixed cells were then stained with the Alexa 488-conjugated Flt3 primary antibody for 1 hour at room temperature. The cells were then analyzed on a Beckman Coulter EPICS-XL flow cytometer.

For the compound `COc1cc2ncc(-c3ccccc3)nc2cc1OC` [AG1296], the “Activity against Flt3 (in words)” value was “active against Flt3” and the “Population of cells showing less staining with the phospho-Flt3(Tyr591) antibody in the presence of the drug” value is given as “approximately 30 % of the total cells”.
